From patent publication US20030032003A1, “IN VIVO SELECTION” (priority 2000, published 2003)
Read-outs that look alike come from different tables or passages of the source. Marks after values point to notes of the source that are not given here.

Experiments:
Hprt +/+ mice = experiment: Histopathological analysis of mouse tissues after 6TG; details: wildtype mice
[1] = tested on: Hprt+/+ mice, recipients of Hprt−/− bone marrow and non-recipient controls
Method: Recipient Hprt+/+ female mice were irradiated with 950 cGy of X-rays 24 hours before transplantation.
Briefly, bone marrow was flushed from femora and tibiae with 2 ml of Dulbecco's modified Eagle medium (D-MEM) supplemented with 10% of FBS and 100 units/ml penicillin, 100 mg/ml streptomycin. The isolated cells from the donor mouse were washed with PBS and injected into the tail vein of female Hprt +/+ recipients.
6TG (2-amino-6-mercaptopurine Sigma) was suspended in sterile PBS with a final concentration of 0.5 mg/ml prior to each i.p. application. All mice, recipients of bone marrow transplant and non-recipient controls, were treated with the same 6TG dose regimen. All mice were treated one hour after transplantation of recipients with an initial dose of 6TG at 10 mg/kg body weight. After 7 days the animals were treated with 4 doses of 5 mg/kg b.w. in 48 hrs intervals and followed with 5 days of recovery period.
This regimen was repeated 2 times with doses 5 mg/kg and 3 times with doses of 10 mg/kg with 5 days recovery periods in between treatments. Another control group of transplanted animals was treated with the same amount of sterile PBS.

Hprt −/− mice = experiment: Histopathological analysis of mouse tissues after 6TG
[2] = Hprt −/−, 6TG lethal 1148-2561 mg/kg, 3 mice
[3] = Hprt −/−, 6TG sublethal 25-720 mg/kg, 11 mice

`Nc1nc(S)c2[nH]cnc2n1` [6TG, 2-amino-6-merkaptopurine] was tested, and the “starting dose of atrophy and/or necrosis of gastrointestinal epithelium” value (Hprt +/+ mice) was 50 mg/kg, the “toxic effect of 6TG” value ([1]; 6TG treated bone marrow (BM) recipients) was “did not show any apparent toxic effect” and the body weight decrease ([1]; 6TG treated bone marrow recipients, first week after transplantation) was “about 10%”. For the same compound, the Body weight ([1]; Bone marrow recipients +6TG, week 1) was 91, the Body weight ([1]; Bone marrow recipients +6TG, week 2) was 89 and the Body weight ([1]; Bone marrow recipients +6TG, week 3) was 90. For the same compound, the Body weight ([1]; Bone marrow recipients +6TG, week 4) was 90, the Body weight ([1]; Bone marrow recipients +6TG, week 5) was 88 and the Body weight ([1]; Bone marrow recipients +6TG, week 6) was 93. The Body weight ([1]; Controls (non-recipients) +6TG, week 1) was 99, the Body weight ([1]; Controls (non-recipients) +6TG, week 2) was 100 and the Body weight ([1]; Controls (non-recipients) +6TG, week 3, these mice died) was 86*. For the same compound, the Body weight ([1]; Controls (non-recipients) +6TG, week 4, these mice died) was 79*, the “loss of body weight” value ([1]; non-recipient controls, during 3 weeks of 6TG treatment) was 25% and the “hyperplasia dose below doses causing toxicity” value (Hprt −/− mice; Hprt deficient animals) was 40 fold. The “dose at which liver necrosis appears” value (Hprt −/− mice; Hprt deficient mice) was no less than 507 mg/kg, the “Kidneys Glomerulopathy, severity grade” value (Hprt −/− mice; Hprt −/−, 25 mg/kg i.p.) was 1 and the “Kidneys Intersticial inflamation, severity grade” value (Hprt −/− mice; Hprt −/−, 25 mg/kg i.p.) was 2. The “Liver Centrilobular hypertrophy, severity grade” value (Hprt −/− mice; Hprt −/−, 25 mg/kg i.p.) was 3, the “Bone marrow Hypercellular, severity grade” value (Hprt −/− mice; Hprt −/−, 50 mg/kg i.p.) was 1.0 ± 1.0 and the “Liver Centrilobular hypertrophy, severity grade” value (Hprt −/− mice; Hprt −/−, 50 mg/kg i.p.) was 1.5 ± 0.5. The “Liver Fatty change, severity grade” value (Hprt −/− mice; Hprt −/−, 50 mg/kg i.p.) was 1.0 ± 1.0, the “Bone marrow Hypercellular, severity grade” value (Hprt −/− mice; Hprt −/−, 100 mg/kg i.p.) was 1 and the “Liver Centrilobular hypertrophy, severity grade” value (Hprt −/− mice; Hprt −/−, 100 mg/kg i.p.) was 2. For the same compound, the “Liver Extramedullary hematopoesis, severity grade” value (Hprt −/− mice; Hprt −/−, 100 mg/kg i.p.) was 1, the “Liver Fatty change, severity grade” value (Hprt −/− mice; Hprt −/−, 100 mg/kg i.p.) was 1 and the “Bone marrow Hypercellular, severity grade” value (Hprt −/− mice; Hprt −/−, 150 mg/kg i.p.) was 2. The “Kidneys Glomerulopathy, severity grade” value (Hprt −/− mice; Hprt −/−, 150 mg/kg i.p.) was 3, the “Kidneys Intersticial inflamation, severity grade” value (Hprt −/− mice; Hprt −/−, 150 mg/kg i.p.) was 2 and the “Kidneys Tubule basophilia, severity grade” value (Hprt −/− mice; Hprt −/−, 150 mg/kg i.p.) was 1. The “Kidneys Tubule dilatation, severity grade” value (Hprt −/− mice; Hprt −/−, 150 mg/kg i.p.) was 2, the “Liver Centrilobular hypertrophy, severity grade” value (Hprt −/− mice; Hprt −/−, 150 mg/kg i.p.) was 2 and the “Liver Extramedullary hematopoesis, severity grade” value (Hprt −/− mice; Hprt −/−, 150 mg/kg i.p.) was 1. For the same compound, the “Liver Fatty change, severity grade” value (Hprt −/− mice; Hprt −/−, 150 mg/kg i.p.) was 3, the “Bone marrow Hypercellular, severity grade” value (Hprt −/− mice; Hprt −/−, 225 mg/kg i.p.) was 2 and the “Kidneys Glomerulopathy, severity grade” value (Hprt −/− mice; Hprt −/−, 225 mg/kg i.p.) was 2. The “Kidneys Intersticial inflamation, severity grade” value (Hprt −/− mice; Hprt −/−, 225 mg/kg i.p.) was 2, the “Kidneys Tubule basophilia, severity grade” value (Hprt −/− mice; Hprt −/−, 225 mg/kg i.p.) was 2 and the “Kidneys Tubule dilatation, severity grade” value (Hprt −/− mice; Hprt −/−, 225 mg/kg i.p.) was 2. For the same compound, the “Liver Extramedullary hematopoesis, severity grade” value (Hprt −/− mice; Hprt −/−, 225 mg/kg i.p.) was 1, the “Liver Fatty change, severity grade” value (Hprt −/− mice; Hprt −/−, 225 mg/kg i.p.) was 2 and the “Bone marrow Hypercellular, severity grade” value (Hprt −/− mice; Hprt −/−, 338 mg/kg i.p.) was 1. For the same compound, the “Kidneys Glomerulopathy, severity grade” value (Hprt −/− mice; Hprt −/−, 338 mg/kg i.p.) was 1, the “Kidneys Intersticial inflamation, severity grade” value (Hprt −/− mice; Hprt −/−, 338 mg/kg i.p.) was 2 and the “Kidneys Tubule basophilia, severity grade” value (Hprt −/− mice; Hprt −/−, 338 mg/kg i.p.) was 1. The “Kidneys Tubule dilatation, severity grade” value (Hprt −/− mice; Hprt −/−, 338 mg/kg i.p.) was 1, the “Liver Centrilobular hypertrophy, severity grade” value (Hprt −/− mice; Hprt −/−, 338 mg/kg i.p.) was 1 and the “Liver Extramedullary hematopoesis, severity grade” value (Hprt −/− mice; Hprt −/−, 338 mg/kg i.p.) was 1. For the same compound, the “Liver Fatty change, severity grade” value (Hprt −/− mice; Hprt −/−, 338 mg/kg i.p.) was 2, the “Spleen Lymphoid depletion, severity grade” value (Hprt −/− mice; Hprt −/−, 338 mg/kg i.p.) was 1 and the “Bone marrow Hypercellular, severity grade” value (Hprt −/− mice; Hprt −/−, 507 mg/kg i.p.) was 1.5 ± 0.5. For the same compound, the “Kidneys Tubule basophilia, severity grade” value (Hprt −/− mice; Hprt −/−, 507 mg/kg i.p.) was 1.5 ± 0.5, the “Kidneys Tubule dilatation, severity grade” value (Hprt −/− mice; Hprt −/−, 507 mg/kg i.p.) was 0.5 ± 0.5 and the “Liver Atrophy necrosis, severity grade” value (Hprt −/− mice; Hprt −/−, 507 mg/kg i.p.) was 1.0 ± 0.0. The “Liver Centrilobular hypertrophy, severity grade” value (Hprt −/− mice; Hprt −/−, 507 mg/kg i.p.) was 2.0 ± 0.0, the “Liver Extramedullary hematopoesis, severity grade” value (Hprt −/− mice; Hprt −/−, 507 mg/kg i.p.) was 1.5 ± 0.5 and the “Liver Fatty change, severity grade” value (Hprt −/− mice; Hprt −/−, 507 mg/kg i.p.) was 2.5 ± 0.5. For the same compound, the “Bone marrow Hypercellular, severity grade” value (Hprt −/− mice; Hprt −/−, 720 mg/kg i.p.) was 1.5 ± 0.5, the “Kidneys Glomerulopathy, severity grade” value (Hprt −/− mice; Hprt −/−, 720 mg/kg i.p.) was 0.5 ± 0.5 and the “Kidneys Intersticial inflamation, severity grade” value (Hprt −/− mice; Hprt −/−, 720 mg/kg i.p.) was 1.5 ± 0.5. The “Kidneys Tubule basophilia, severity grade” value (Hprt −/− mice; Hprt −/−, 720 mg/kg i.p.) was 1.5 ± 0.5, the “Kidneys Tubule dilatation, severity grade” value (Hprt −/− mice; Hprt −/−, 720 mg/kg i.p.) was 1.5 ± 0.5 and the “Liver Atrophy necrosis, severity grade” value (Hprt −/− mice; Hprt −/−, 720 mg/kg i.p.) was 0.5 ± 0.5. For the same compound, the “Liver Centrilobular hypertrophy, severity grade” value (Hprt −/− mice; Hprt −/−, 720 mg/kg i.p.) was 1.0 ± 0.0, the “Liver Extramedullary hematopoesis, severity grade” value (Hprt −/− mice; Hprt −/−, 720 mg/kg i.p.) was 1.0 ± 0.0 and the “Liver Fatty change, severity grade” value (Hprt −/− mice; Hprt −/−, 720 mg/kg i.p.) was 1.5 ± 0.5. The “Spleen Lymphoid depletion, severity grade” value (Hprt −/− mice; Hprt −/−, 720 mg/kg i.p.) was 0.5 ± 0.5, the “Bone marrow Depletion, average of lesion severity grade” value (Hprt −/− mice; [2]) was 2.3 ± 0.6 and the “Bone marrow Necrosis, average of lesion severity grade” value (Hprt −/− mice; [2]) was 3.0 ± 0.0. The “Gastric epithelium Atrophy, average of lesion severity grade” value (Hprt −/− mice; [2]) was 0.6 ± 0.6, the “Intestinal epithelium Atrophy, average of lesion severity grade” value (Hprt −/− mice; [2]) was 0.6 ± 0.6 and the “Kidneys Tubule dilatation, average of lesion severity grade” value (Hprt −/− mice; [2]) was 0.3 ± 0.6. The “Liver Atrophy necrosis, average of lesion severity grade” value (Hprt −/− mice; [2]) was 1.3 ± 0.6, the “Liver Centrilobular hypertrophy, average of lesion severity grade” value (Hprt −/− mice; [2]) was 1.0 ± 1.7 and the “Liver Extramedullary hematopoesis, average of lesion severity grade” value (Hprt −/− mice; [2]) was 0.3 ± 0.6. The “Liver Fatty change, average of lesion severity grade” value (Hprt −/− mice; [2]) was 3.3 ± 0.6, the “Spleen Lymphoid depletion, average of lesion severity grade” value (Hprt −/− mice; [2]) was 3.7 ± 0.6 and the “Spleen Necrosis, average of lesion severity grade” value (Hprt −/− mice; [2]) was 2.0 ± 1.7. The “Bone marrow Hypercellular, average of lesion severity grade” value (Hprt −/− mice; [3]) was 1.2 ± 0.6, the “Kidneys Glomerulopathy, average of lesion severity grade” value (Hprt −/− mice; [3]) was 1.0 ± 1.0 and the “Kidneys Intersticial inflamation, average of lesion severity grade” value (Hprt −/− mice; [3]) was 1.5 ± 1.0. The “Kidneys Tubule basophilia, average of lesion severity grade” value (Hprt −/− mice; [3]) was 0.9 ± 0.8, the “Kidneys Tubule dilatation, average of lesion severity grade” value (Hprt −/− mice; [3]) was 0.9 ± 0.9 and the “Liver Atrophy necrosis, average of lesion severity grade” value (Hprt −/− mice; [3]) was 0.2 ± 0.4. The “Liver Centrilobular hypertrophy, average of lesion severity grade” value (Hprt −/− mice; [3]) was 1.2 ± 0.8, the “Liver Extramedullary hematopoesis, average of lesion severity grade” value (Hprt −/− mice; [3]) was 0.8 ± 0.5 and the “Liver Fatty change, average of lesion severity grade” value (Hprt −/− mice; [3]) was 1.6 ± 0.9. For the same compound, the “Spleen Lymphoid depletion, average of lesion severity grade” value (Hprt −/− mice; [3]) was 02 ± 0.4.
